# Where two headings read alike, the source gives them in different places.
# Columns and labels:
# [1] = target: B-Raf (Homo sapiens, UniProt P15056); assay: Luciferase-coupled chemiluminescence kinase assay (ATP consumption), B-Raf; type: biochemical
# Procedure: (§1) Tyrosine kinase activity is determined by 1) measurement of kinase-dependent ATP consumption by in the presence of a generic substrate such as […], tyrosine (pEY), by luciferase/luciferin-mediated chemiluminescence or; 2) incorporation of radioactive phosphate derived from ^33P-ATP into a generic substrate which has been adsorbed onto the well surface of polystyrene microtiter plates. Phosphorylated substrate products are quantified by scintillation spectrometry.
# (§2) Luciferase-Coupled Chemiluminescence Assay Protocol
# (§3) Kinase activity is measured as the percent of ATP consumed following the kinase reaction using luciferase-luciferin-coupled chemiluminescence. Reactions were conducted in 384-well white, medium binding microtiter plates (Greiner). Kinase reactions were initiated by combining test compounds, ATP and kinase in a 20 uL volume. The reaction mixture was incubated at ambient temperature for 3 hrs. For c-Raf, B-Raf, and B-RafV599E, […] of the enzyme was pre-incubated with compound in 20 mM Tris pH 7.5, 10 mM MgCl2, 0.03% TX-100, and 1 mM DTT for 30 minutes at room temperature. Following the kinase reaction, a 20 μL aliquot of luciferase-luciferin mix was added and the chemiluminescence signal measured using a Victor^2 plate reader (Perkin Elmer). The luciferase-luciferin mix contained 50 mM HEPES, pH 7.8, 67 mM oxalic acid (pH 7.8), 5 (or 50) mM DTT, 0.4% Triton X-100, 0.25 mg/mL coenzyme A, 63 μM AMP, 28 μg/mL luciferin and 40,000 units/mL luciferase. Total ATP consumption was limited to 25-60% and the IC50 values correlate well with those determined by radiometric assays.
# [2] = target: c-Raf (Homo sapiens, UniProt P04049); assay: Luciferase-coupled chemiluminescence kinase assay (ATP consumption), c-Raf; type: biochemical
# c-Raf, sequence (P04049 whole entry): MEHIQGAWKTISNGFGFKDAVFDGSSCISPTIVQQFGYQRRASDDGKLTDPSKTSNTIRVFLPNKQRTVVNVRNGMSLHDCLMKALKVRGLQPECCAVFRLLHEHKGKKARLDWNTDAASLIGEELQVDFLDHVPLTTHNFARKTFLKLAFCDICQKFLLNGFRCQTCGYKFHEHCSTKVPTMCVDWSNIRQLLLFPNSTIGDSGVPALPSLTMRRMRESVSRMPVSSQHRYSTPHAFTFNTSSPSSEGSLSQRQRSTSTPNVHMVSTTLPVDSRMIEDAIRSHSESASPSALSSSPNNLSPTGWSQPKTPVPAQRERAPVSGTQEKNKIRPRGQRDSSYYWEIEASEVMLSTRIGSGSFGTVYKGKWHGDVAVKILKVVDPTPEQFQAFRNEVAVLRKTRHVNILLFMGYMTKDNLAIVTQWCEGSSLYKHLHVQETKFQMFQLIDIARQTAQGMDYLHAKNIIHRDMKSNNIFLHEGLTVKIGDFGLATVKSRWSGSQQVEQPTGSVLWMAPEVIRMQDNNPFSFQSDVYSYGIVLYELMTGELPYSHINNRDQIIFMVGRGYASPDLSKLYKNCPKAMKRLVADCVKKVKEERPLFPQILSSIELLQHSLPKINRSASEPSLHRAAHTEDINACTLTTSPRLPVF
# Procedure: as §1, §2, §3
# [3] = read-out: bRaf (inhibition indicated as IC50)
# [4] = read-out: cRaf-1 (inhibition indicated as IC50)
# B-Raf, sequence (P15056 whole entry): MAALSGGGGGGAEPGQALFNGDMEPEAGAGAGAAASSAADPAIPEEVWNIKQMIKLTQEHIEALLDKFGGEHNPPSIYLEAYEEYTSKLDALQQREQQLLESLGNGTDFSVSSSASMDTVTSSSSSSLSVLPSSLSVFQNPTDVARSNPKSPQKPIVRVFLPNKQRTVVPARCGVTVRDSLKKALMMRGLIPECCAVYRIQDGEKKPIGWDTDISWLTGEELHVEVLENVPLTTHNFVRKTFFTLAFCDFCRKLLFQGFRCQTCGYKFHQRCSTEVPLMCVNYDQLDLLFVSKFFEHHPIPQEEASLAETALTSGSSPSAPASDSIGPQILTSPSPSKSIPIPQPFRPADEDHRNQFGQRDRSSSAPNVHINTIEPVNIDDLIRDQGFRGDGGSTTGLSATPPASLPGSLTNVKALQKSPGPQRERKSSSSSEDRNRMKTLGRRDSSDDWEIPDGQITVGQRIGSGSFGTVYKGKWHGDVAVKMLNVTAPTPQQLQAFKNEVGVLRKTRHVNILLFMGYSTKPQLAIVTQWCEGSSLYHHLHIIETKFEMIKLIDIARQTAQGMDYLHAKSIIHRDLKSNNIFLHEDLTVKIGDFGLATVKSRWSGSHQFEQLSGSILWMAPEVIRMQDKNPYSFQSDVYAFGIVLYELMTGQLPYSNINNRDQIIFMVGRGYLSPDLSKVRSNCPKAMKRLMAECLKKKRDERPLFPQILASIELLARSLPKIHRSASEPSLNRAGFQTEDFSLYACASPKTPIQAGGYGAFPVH
SMILES,IC50 ([1]; read-out: bRaf IC50) [nM],IC50 ([2]; read-out: cRaf-1 IC50) [nM],"IC50 [1, 3] [nM]","IC50 [2, 4] [nM]"
"COC(=O)Nc1nc2cc(C3(O)c4ccccc4C(=O)N3c3cccc(Br)c3F)ccc2[nH]1 (stereo not drawn) [Entry 251, methyl {5-[2-(3-bromo-2-fluorophenyl)-1-hydroxy-3-oxo-2,3-dihydro-1H-isoindol-1-yl]-1H-benzimidazol-2-yl}carbamate]",< 100,< 100,–,–
"CCNC(=O)Nc1nc2cc(C3(O)c4ccccc4C(=O)N3[C@H](C)c3ccccc3)ccc2[nH]1 (stereo partly drawn) [Entry 157, N-ethyl-N′-(5-{1-hydroxy-3-oxo-2-[(1R)-1-phenylethyl]-2,3-dihydro-1H-isoindol-1-yl}-1H-benzimidazol-2-yl)urea]",< 100,< 100,–,–
"COC(=O)Nc1nc2ccc(C(=O)c3ccccc3C(=O)Nc3cccc(Cl)c3F)cc2[nH]1 [Entry 407, methyl {6-[(2-{[(3-chloro-2-fluorophenyl)amino]carbonyl}phenyl)carbonyl]-1H-benzimidazol-2-yl}carbamate]",–,–,< 100,< 100
"COC(=O)Nc1nc2cc(C3(O)c4ccccc4C(=O)N3C(C)c3ccc(Br)s3)ccc2[nH]1 (stereo not drawn) [Entry 249, methyl (5-{2-[1-(5-bromo-2-thienyl)ethyl]-1-hydroxy-3-oxo-2,3-dihydro-1H-isoindol-1-yl}-1H-benzimidazol-2-yl)carbamate]",< 100,< 100,–,–
"COc1cccc(N2C(=O)c3ccccc3C2(O)c2ccc3nc(Nc4ncccn4)[nH]c3c2)c1 (stereo not drawn) [Entry 373, 3-hydroxy-2-[3-(methyloxy)phenyl]-3-[2-(pyrimidin-2-ylamino)-1H-benzimidazol-6-yl]-2,3-dihydro-1H-isoindol-1-one]",–,–,< 100,< 100
"O=C(Nc1nc2cc(C3(O)c4ccccc4C(=O)N3Cc3ccccc3)ccc2[nH]1)OC1CCNCC1 (stereo not drawn) [Entry 170, piperidin-4-yl {5-[1-hydroxy-3-oxo-2-(phenylmethyl)-2,3-dihydro-1H-isoindol-1-yl]-1H-benzimidazol-2-yl}carbamate]",< 100,< 100,–,–
"COC(=O)Nc1nc2ccc(C(=O)c3ccccc3C(=O)Nc3ccc(F)c(Cl)c3)cc2[nH]1 [Entry 401, methyl {6-[(2-{[(3-chloro-4-fluorophenyl)amino]carbonyl}phenyl)carbonyl]-1H-benzimidazol-2-yl}carbamate]",–,–,< 100,< 100
"COC(=O)Nc1nc2cc(C3(O)c4ccccc4C(=O)N3c3cc(C)ccc3OC)ccc2[nH]1 (stereo not drawn) [Entry 382, methyl (5-{1-hydroxy-2-[5-methyl-2-(methyloxy)phenyl]-3-oxo-2,3-dihydro-1H-isoindol-1-yl}-1H-benzimidazol-2-yl)carbamate]",–,–,< 100,< 100
"COCCOC(=O)Nc1nc2cc(C3(O)c4ccccc4C(=O)N3c3cccc(Cl)c3F)ccc2[nH]1 (stereo not drawn) [Entry 336, 2-(methyloxy)ethyl {5-[2-(3-chloro-2-fluorophenyl)-1-hydroxy-3-oxo-2,3-dihydro-1H-isoindol-1-yl]-1H-benzimidazol-2-yl}carbamate]",–,–,< 100,< 100
"O=C(Nc1nc2cc(C3(O)c4ccccc4C(=O)N3Cc3ccccc3)ccc2[nH]1)N1CCOCC1 (stereo not drawn) [Entry 188, N-{5-[1-hydroxy-3-oxo-2-(phenylmethyl)-2,3-dihydro-1H-isoindol-1-yl]-1H-benzimidazol-2-yl}morpholine-4-carboxamide]",1000 to 10000,100 to 1000,–,–
"O=C(Nc1nc2ccc(C3(O)c4ccccc4C(=O)N3c3cccc(Cl)c3F)cc2[nH]1)OCCCN1CCCCC1 (stereo not drawn) [Entry 294, 3-piperidin-1-ylpropyl {6-[2-(3-chloro-2-fluorophenyl)-1-hydroxy-3-oxo-2,3-dihydro-1H-isoindol-1-yl]-1H-benzimidazol-2-yl}carbamate]",–,–,1000 to 10000,1000 to 10000
"CN(C(=O)c1ccccc1C(=O)c1ccc2c(c1)NC(=O)CO2)c1ccccc1 [Entry 91, N-methyl-2-[(3-oxo-3,4-dihydro-2H-1,4-benzoxazin-6-yl)carbonyl]-N-phenylbenzamide]",≥ 10000,≥ 10000,–,–
"O=C1COc2ccc(C3(O)c4ccccc4C(=O)N3c3cc(F)cc(I)c3)cc2N1 (stereo not drawn) [Entry 66, 6-[2-(3-fluoro-5-iodophenyl)-1-hydroxy-3-oxo-2,3-dihydro-1H-isoindol-1-yl]-2H-1,4-benzoxazin-3(4H)-one]",1000 to 10000,1000 to 10000,–,–
"COC(=O)Nc1nc2cc(C3(O)c4ccccc4C(=O)N3c3cccc(C)c3C)ccc2[nH]1 (stereo not drawn) [Entry 190, methyl {5-[2-(2,3-dimethylphenyl)-1-hydroxy-3-oxo-2,3-dihydro-1H-isoindol-1-yl]-1H-benzimidazol-2-yl}carbamate]",< 100,< 100,–,–
"CC(C)C(=O)Nc1nc2ccc(C3(O)c4ccccc4C(=O)N3Cc3ccccc3)cc2[nH]1 (stereo not drawn) [Entry 240, N-{6-[1-hydroxy-3-oxo-2-(phenylmethyl)-2,3-dihydro-1H-isoindol-1-yl]-1H-benzimidazol-2-yl}-2-methylpropanamide]",100 to 1000,100 to 1000,–,–
"CC#CCOC(=O)Nc1nc2cc(C3(O)c4ccccc4C(=O)N3Cc3ccccc3)ccc2[nH]1 (stereo not drawn) [Entry 109, but-2-yn-1-yl {5-[1-hydroxy-3-oxo-2-(phenylmethyl)-2,3-dihydro-1H-isoindol-1-yl]-1H-benzimidazol-2-yl}carbamate]",< 100,< 100,–,–
"COC(=O)Nc1nc2ccc(C(=O)c3ccccc3C(=O)Nc3cccc(C(F)(F)F)c3)cc2[nH]1 [Entry 398, methyl (6-{[2-({[3-(trifluoromethyl)phenyl]amino}carbonyl)phenyl]carbonyl}-1H-benzimidazol-2-yl)carbamate]",–,–,< 100,< 100
"COC(=O)Nc1nc2cc(C3(O)c4ccccc4C(=O)N3c3ccccc3Oc3ccccc3)ccc2[nH]1 (stereo not drawn) [Entry 342, methyl (5-{1-hydroxy-3-oxo-2-[2-(phenyloxy)phenyl]-2,3-dihydro-1H-isoindol-1-yl}-1H-benzimidazol-2-yl)carbamate]",–,–,100 to 1000,100 to 1000
"O=C1COc2ccc(C3(O)c4ccccc4C(=O)N3Cc3cc(Br)ccc3F)cc2N1 (stereo not drawn) [Entry 51, 6-{2-[(5-bromo-2-fluorophenyl)methyl]-1-hydroxy-3-oxo-2,3-dihydro-1H-isoindol-1-yl}-2H-1,4-benzoxazin-3(4H)-one]",1000 to 10000,1000 to 10000,–,–
"CC(C)COC(=O)Nc1nc2cc(C3(O)c4ccccc4C(=O)N3Cc3ccccc3)ccc2[nH]1 (stereo not drawn) [Entry 97, 2-methylpropyl {5-[1-hydroxy-3-oxo-2-(phenylmethyl)-2,3-dihydro-1H-isoindol-1-yl]-1H-benzimidazol-2-yl}carbamate]",100 to 1000,100 to 1000,–,–
"CN(C)CCOc1cccc(N2C(=O)c3ccccc3C2(O)c2ccc3c(c2)NC(=O)CO3)c1 (stereo not drawn) [Entry 89, 6-[2-(3-{[2-(dimethylamino)ethyl]oxy}phenyl)-1-hydroxy-3-oxo-2,3-dihydro-1H-isoindol-1-yl]-2H-1,4-benzoxazin-3(4H)-one]",≥ 10000,≥ 10000,–,–
"COC(=O)Nc1nc2cc(C3(O)c4ccccc4C(=O)N3C(C)c3cc(Cl)cs3)ccc2[nH]1 (stereo not drawn) [Entry 233, methyl (5-{2-[1-(4-chloro-2-thienyl)ethyl]-1-hydroxy-3-oxo-2,3-dihydro-1H-isoindol-1-yl}-1H-benzimidazol-2-yl)carbamate]",< 100,< 100,–,–
"COc1ccc(Cl)cc1N1C(=O)c2ccccc2C1(O)c1ccc2c(c1)NC(=O)CO2 (stereo not drawn) [Entry 63, 6-{2-[5-chloro-2-(methyloxy)phenyl]-1-hydroxy-3-oxo-2,3-dihydro-1H-isoindol-1-yl}-2H-1,4-benzoxazin-3(4H)-one]",1000 to 10000,≥ 10000,–,–
"COC(=O)Nc1nc2cc(C3(O)c4ccccc4C(=O)N3Cc3cccc(OC)c3)ccc2[nH]1 (stereo not drawn) [Entry 117, methyl [5-(1-hydroxy-2-{[3-(methyloxy)phenyl]methyl}-3-oxo-2,3-dihydro-1H-isoindol-1-yl)-1H-benzimidazol-2-yl]carbamate]",100 to 1000,100 to 1000,–,–
"Nc1cc(Cl)cc(N2C(=O)c3ccccc3C2(O)c2ccc3c(c2)NC(=O)CO3)c1 (stereo not drawn) [Entry 73, 6-[2-(3-amino-5-chlorophenyl)-1-hydroxy-3-oxo-2,3-dihydro-1H-isoindol-1-yl]-2H-1,4-benzoxazin-3(4H)-one]",< 100,< 100,–,–
"O=C(Nc1nc2cc(C3(O)c4ccccc4C(=O)N3Cc3ccccc3)ccc2[nH]1)N1CCCCC1 (stereo not drawn) [Entry 213, N-{5-[1-hydroxy-3-oxo-2-(phenylmethyl)-2,3-dihydro-1H-isoindol-1-yl]-1H-benzimidazol-2-yl}piperidine-1-carboxamide]",1000 to 10000,100 to 1000,–,–
"COC(=O)Nc1nc2cc(C3(O)c4ccccc4C(=O)N3Cc3ccncc3)ccc2[nH]1 (stereo not drawn) [Entry 112, methyl {5-[1-hydroxy-3-oxo-2-(pyridin-4-ylmethyl)-2,3-dihydro-1H-isoindol-1-yl]-1H-benzimidazol-2-yl}carbamate]",≥ 10000,1000 to 10000,–,–

# From patent US7846959B2, “Raf modulators and methods of use” (Exelixis, Inc., priority 2004, dated 2010)
